Paper PMC3930709, “Selective Activation of hTRPV1 by N-Geranyl Cyclopropylcarboxamide, an Amiloride-Insensitive Salt Taste Enhancer” (PLoS ONE, 2014)

How the values were obtained:
Format in all cases: cell-based
[1] = biological target: T1, hTRPV1 (Homo sapiens, UniProt Q8NER1); assay: Whole-cell patch clamp recording, hTRPV1-expressing HEK293T cells
T1 construct: expressed in transfected cells; host or cells: HEK293T
Procedure: Mouse ASIC1a (mASIC1a) was a kind gift from John A. Wemmie (University of Iowa, IA, USA). For electrophysiological experiments, HEK293T cells were cultured in DMEM supplemented with 10% FBS and 0.2% penicillin/streptomycin and transiently transfected using Lipofectamine 2000 (Invitrogen) with various cDNAs. For TRPV1 channel expression, cells were transfected with hTRPV1, for ASIC1a homomeric channel expression, cells were transfected with mASIC1a. When needed, 0.1–0.2 µg of cDNA encoding tetrameric red fluorescence protein (DsRed) was co-transfected with the cDNA as a marker for successfully transfected cells. For non-transfected cells, cells were transfected with 0.1–0.2 µg of cDNA encoding DsRed alone. The next day, cells were plated onto poly-L-lysine-coated coverslip chips, and fluorescent cells were studied within 1–2 days.
(§1) The whole-cell configuration was used to voltage-clamp at room temperature (22–25°C). Electrodes pulled from glass micropipette capillaries (Sutter Instrument) had resistances of 2–2.5 MΩ, and series resistance errors were compensated >60%. Fast and slow capacitances were compensated before the application of test-pulse. Recordings were performed using aHEKAEPC-10 amplifier with pulse software (HEKA Elektronik). The pipette solution contained: 140 mM KCl, 5 mM MgCl2, 10 mM HEPES, 0.1 mM 1,2-bis(2-aminophenoxy) ethane N,N,N’,N’-tetraacetic acid(BAPTA), 3 mM Na2ATP, and 0.1 mM Na3GTP, adjusted to pH 7.4 with KOH. The external Ringer’s solution used for recording TRPV1 and TRPA1 currents contained: 150 mM NaCl, 5 mM KCl, 1 mM MgCl2, 2 mM EGTA, 10 mM Glucose, and 10 mM HEPES, adjusted to pH 7.4 with NaOH. TRPV1 and TRPA1 currents were recorded by holding the cell at −80 mV. The external Ringer’s solution used for recording ASIC current contained: 160 mM NaCl, 5 mM KCl, 1 mM MgCl2, 2 mM CaCl2, and 10 mM HEPES, adjusted to pH 7.4 with tetramethylammonium hydroxide. For acidic solution of pH 6.0, HEPES was replaced with MES. ASIC currents were recorded by holding the cell at −70 mV. Reagents were obtained as follows: BAPTA, Na2ATP, Na3GTP, EGTA, and tetramethylammonium hydroxide (Sigma), HEPES (Calbiochem), MES (Alfa Aesar), and other chemicals (Merck).

[2] = biological target: T1, hTRPV1; assay: Measurement of Ca2+ influx (Fluo-4 AM, FlexStation III) in hTRPV1-expressing cells; details: RR 30 µM or CPZ 1 µM added with agonist
Procedure: hTRPV1 was constructed by amplification of the hTRPV1 region (NCBI accession number: NG_029716.1) and cloned into pEAK10 vector (Edge Biosystems, Gaithersburg, MD, USA). The hTRPV1 construct was amplified by PCR and the nucleotide sequence of the hTRPV1 gene was confirmed by sequencing with an ABI 3130 DNA genetic analyzer (Applied Biosystems, Foster City, CA, USA). […] After 6 h, transfected cells were seeded onto 96-well black-wall plate (BD Falcon Labware, Franklin Lakes, NJ, USA) for 18–26 h prior to their use in an experiment. The ligand-induced changes on cytosolic Ca^2+ level were monitored by a FlexStation III microplate reader (Molecular Devices). Fluo-4 AM (5 µM, Molecular Probes, Eugene, OR, USA) in assay buffer was loaded to the cells in 96-well black-wall plates for 30 min at 27°C. After dye treatment, each chemical was added to each well at 17 s and changes on intracellular Ca^2+ level were monitored by relative fluorescence units (ΔRFU, Ex = 485 nm; Em = 516 nm) for 120 s. […] The responses from at least three wells receiving the same stimulus were averaged. Plots of amplitude versus concentration were fitted using the Hill equation.

[3] = biological target: T1, hTRPV1; assay: Ca2+ imaging (Fura-2 AM) of hTRPV1-expressing HEK293T cells; details: NGCC 30 µM; RR 30 µM, CPZ 1 µM
Procedure: hTRPV1 was constructed by amplification of the hTRPV1 region (NCBI accession number: NG_029716.1) and cloned into pEAK10 vector (Edge Biosystems, Gaithersburg, MD, USA). The hTRPV1 construct was amplified by PCR and the nucleotide sequence of the hTRPV1 gene was confirmed by sequencing with an ABI 3130 DNA genetic analyzer (Applied Biosystems, Foster City, CA, USA). […] After 6 h, transfected cells were seeded onto 96-well black-wall plate (BD Falcon Labware, Franklin Lakes, NJ, USA) for 18-26 h prior to their use in an experiment. Mock-transfected HEK293T cells, hTRPV1-expressing HEK293T cells, non-hTRPA1-expressing Flp-In 293 cells, and hTRPA1-expressing Flp-In 293 cells grown in 96-well black-wall plates were rinsed with assay buffer (130 mM NaCl, 10 mM glucose, 5 mM KCl, 2 […]2, 1.2 mM MgCl2, and 10 mM HEPES, pH 7.4) and loaded with 5 μM Fura-2 AM (Invitrogen) for 30 min at 27°C. […] The fluorescence intensities of Fura-2 excited at 340 and 380 nm were simultaneously measured at 510 nm using a computer-controlled filter changer (Lambda DG4; Sutter, San Rafael, CA, USA), an Andor Luca CCD camera (Andor Technology, Belfast, UK), and an inverted fluorescence microscope (IX-71; Olympus, Tokyo, Japan). Intracellular calcium images were recorded every 3-s for 60-s and analyzed using MetaFluor software (Molecular Devices, Sunnyvale, CA, USA).

[4] = biological target: T2, hTRPA1 (Homo sapiens, UniProt O75762); assay: Whole-cell patch clamp recording, cells stably expressing hTRPA1; details: AITC 100 µM; NGCC 10^3 µM; holding -80 mV
T2 construct: expressed in transfected cells
Procedure: Flp-In 293 cell lines stably expressing hTRPA1constructed as previously reported was a gift from the professor Takumi Misaka at University of Tokyo. The hTRPA1-expressing cells were cultured in DMEM containing 10% FBS and 0.02% hygromycin B (Invitrogen). Flp-In 293 cell lines were maintained in DMEM containing 10% FBS. All cells were incubated at 37°C in a humidified atmosphere of 5% CO2.
as §1

[5] = biological target: T3, αβγ hENaC (Homo sapiens, UniProt P37088+P51168+P51170); assay: Membrane potential assay (FMP dye) on αβγ hENaC-expressing cells; details: continuous presence of Bz (0.01 µM)
T3 construct: GFP; host or cells: HEK293T
T3 sequence (P37088 1-669): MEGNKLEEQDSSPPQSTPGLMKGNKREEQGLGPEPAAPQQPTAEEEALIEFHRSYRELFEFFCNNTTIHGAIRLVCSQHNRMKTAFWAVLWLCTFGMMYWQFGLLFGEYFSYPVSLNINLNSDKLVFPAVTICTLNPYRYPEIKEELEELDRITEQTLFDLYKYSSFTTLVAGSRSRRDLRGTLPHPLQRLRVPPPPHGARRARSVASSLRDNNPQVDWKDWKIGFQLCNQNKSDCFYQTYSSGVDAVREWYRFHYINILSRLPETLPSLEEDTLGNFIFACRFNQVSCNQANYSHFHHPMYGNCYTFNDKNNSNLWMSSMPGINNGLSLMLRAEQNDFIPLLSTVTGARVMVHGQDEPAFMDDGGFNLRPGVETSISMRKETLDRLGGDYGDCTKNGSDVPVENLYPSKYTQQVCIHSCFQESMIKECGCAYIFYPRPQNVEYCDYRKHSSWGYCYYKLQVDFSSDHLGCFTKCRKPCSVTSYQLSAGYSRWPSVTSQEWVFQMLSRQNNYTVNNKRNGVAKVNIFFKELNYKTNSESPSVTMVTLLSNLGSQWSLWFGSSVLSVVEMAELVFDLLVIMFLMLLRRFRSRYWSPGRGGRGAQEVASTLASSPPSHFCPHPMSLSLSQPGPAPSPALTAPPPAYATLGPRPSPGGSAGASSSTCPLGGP
T3 sequence (P51168 1-640): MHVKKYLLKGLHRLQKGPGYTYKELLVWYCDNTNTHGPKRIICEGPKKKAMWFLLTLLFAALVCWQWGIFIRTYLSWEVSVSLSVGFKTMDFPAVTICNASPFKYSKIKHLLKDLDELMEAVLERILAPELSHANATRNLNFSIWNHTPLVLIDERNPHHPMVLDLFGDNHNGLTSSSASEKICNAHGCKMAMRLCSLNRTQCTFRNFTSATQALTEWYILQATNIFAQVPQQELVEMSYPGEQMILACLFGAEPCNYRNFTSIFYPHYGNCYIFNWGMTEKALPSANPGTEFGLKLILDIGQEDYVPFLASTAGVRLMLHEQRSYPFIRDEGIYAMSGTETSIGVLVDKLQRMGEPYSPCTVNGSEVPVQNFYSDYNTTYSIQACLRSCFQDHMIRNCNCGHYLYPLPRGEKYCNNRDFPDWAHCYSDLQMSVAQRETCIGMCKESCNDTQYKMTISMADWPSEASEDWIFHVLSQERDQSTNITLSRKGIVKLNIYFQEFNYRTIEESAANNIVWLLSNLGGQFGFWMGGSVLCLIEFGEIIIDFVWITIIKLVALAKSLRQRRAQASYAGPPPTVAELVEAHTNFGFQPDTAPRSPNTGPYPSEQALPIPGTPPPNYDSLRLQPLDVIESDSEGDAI
T3 sequence (P51170 1-649): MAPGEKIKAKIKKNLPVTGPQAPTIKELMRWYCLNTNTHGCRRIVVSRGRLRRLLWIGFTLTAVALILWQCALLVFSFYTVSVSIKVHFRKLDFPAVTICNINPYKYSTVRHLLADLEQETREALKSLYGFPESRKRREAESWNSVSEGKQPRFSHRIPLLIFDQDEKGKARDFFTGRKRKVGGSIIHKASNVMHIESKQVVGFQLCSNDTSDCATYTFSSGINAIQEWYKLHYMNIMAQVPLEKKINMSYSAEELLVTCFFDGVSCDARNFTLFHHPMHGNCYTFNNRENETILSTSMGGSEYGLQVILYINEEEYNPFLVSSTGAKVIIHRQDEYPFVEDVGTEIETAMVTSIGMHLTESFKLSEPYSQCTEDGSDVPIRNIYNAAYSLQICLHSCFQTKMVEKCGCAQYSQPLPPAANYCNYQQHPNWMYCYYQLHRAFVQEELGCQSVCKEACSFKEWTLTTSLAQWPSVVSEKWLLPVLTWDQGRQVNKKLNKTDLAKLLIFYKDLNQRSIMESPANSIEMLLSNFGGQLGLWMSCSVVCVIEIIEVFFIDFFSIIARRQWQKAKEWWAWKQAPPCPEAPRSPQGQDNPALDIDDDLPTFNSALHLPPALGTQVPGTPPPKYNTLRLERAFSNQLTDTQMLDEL
Procedure: The α, β, and γ hENaC subunits were cloned from OriGene (Rockville, MD; GenBank accession number […] for SCNN1A, NM_000336 for SCNN1B and NM_001039 for SCNN1G). α, GFP-tagged β, and γ hENaC were cloned into a CMV promoter-based vector and expressed constitutively. The HEK293T cells were seeded onto a 35 mm dish and transfected with α, β, and γ hENaC expression plasmid using Lipofectamine 2000 (Invitrogen). Then, transfected cells were seeded onto 96-well black-wall plate for 18–26 h prior to their use in an experiment.
hENaC-expressing cells were characterized using FLIPER Membrane Potential (FMP) Assay Kit (Molecular Devices Corporation, Sunnyvale, CA, USA). In this assay, changes in the membrane potential were quantified via fluorescence change caused by FMP dye. The hENaC-expressing cells were washed with assay buffer (containing: 130 mM NaCl, 10 mM glucose, 5 mM KCl, 2 mM CaCl2, 1.2 mM MgCl2, and 10 mM HEPES, pH adjusted to 7.4 with NaOH) and subsequently, FMP blue-dye in assay buffer was loaded into the cells at room temperature for 30 min. After dye treatment, S3969 (0.03−10 µM), an ENaC agonist, S3969+Bz (ENaC antagonist, 0.01 µM), or NGCC (0.01−10 µM) was treated to hENaC-expressing cells. The plate was assayed in a FlexStation III plate reader (Molecular devices Corporation) by excitation at 530 nm and measuring the emission at 560 nm.

[6] = first pulse normalized to 1.0, n = 4

T1 sequence (Q8NER1 whole entry): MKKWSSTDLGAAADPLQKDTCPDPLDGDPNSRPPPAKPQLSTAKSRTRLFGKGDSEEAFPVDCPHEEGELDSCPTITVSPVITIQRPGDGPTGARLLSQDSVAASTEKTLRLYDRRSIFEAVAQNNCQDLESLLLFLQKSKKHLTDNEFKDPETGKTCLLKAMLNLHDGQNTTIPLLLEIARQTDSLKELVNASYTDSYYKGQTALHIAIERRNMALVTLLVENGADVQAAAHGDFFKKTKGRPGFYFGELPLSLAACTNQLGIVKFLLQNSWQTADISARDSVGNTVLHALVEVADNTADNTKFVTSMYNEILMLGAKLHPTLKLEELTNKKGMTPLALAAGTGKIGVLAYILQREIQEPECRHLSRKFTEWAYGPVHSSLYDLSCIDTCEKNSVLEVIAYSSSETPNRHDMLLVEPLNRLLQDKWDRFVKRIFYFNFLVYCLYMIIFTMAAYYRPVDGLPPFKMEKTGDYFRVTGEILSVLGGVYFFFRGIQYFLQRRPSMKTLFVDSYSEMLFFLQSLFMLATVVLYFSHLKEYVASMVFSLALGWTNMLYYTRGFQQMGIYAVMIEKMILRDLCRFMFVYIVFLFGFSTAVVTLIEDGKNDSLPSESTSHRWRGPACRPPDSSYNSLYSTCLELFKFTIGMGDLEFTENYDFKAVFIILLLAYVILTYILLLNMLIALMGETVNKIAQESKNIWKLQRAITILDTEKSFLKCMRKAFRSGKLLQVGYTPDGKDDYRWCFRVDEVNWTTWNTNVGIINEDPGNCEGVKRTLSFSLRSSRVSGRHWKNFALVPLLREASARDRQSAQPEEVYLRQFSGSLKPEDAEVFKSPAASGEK
T2 sequence (O75762 whole entry): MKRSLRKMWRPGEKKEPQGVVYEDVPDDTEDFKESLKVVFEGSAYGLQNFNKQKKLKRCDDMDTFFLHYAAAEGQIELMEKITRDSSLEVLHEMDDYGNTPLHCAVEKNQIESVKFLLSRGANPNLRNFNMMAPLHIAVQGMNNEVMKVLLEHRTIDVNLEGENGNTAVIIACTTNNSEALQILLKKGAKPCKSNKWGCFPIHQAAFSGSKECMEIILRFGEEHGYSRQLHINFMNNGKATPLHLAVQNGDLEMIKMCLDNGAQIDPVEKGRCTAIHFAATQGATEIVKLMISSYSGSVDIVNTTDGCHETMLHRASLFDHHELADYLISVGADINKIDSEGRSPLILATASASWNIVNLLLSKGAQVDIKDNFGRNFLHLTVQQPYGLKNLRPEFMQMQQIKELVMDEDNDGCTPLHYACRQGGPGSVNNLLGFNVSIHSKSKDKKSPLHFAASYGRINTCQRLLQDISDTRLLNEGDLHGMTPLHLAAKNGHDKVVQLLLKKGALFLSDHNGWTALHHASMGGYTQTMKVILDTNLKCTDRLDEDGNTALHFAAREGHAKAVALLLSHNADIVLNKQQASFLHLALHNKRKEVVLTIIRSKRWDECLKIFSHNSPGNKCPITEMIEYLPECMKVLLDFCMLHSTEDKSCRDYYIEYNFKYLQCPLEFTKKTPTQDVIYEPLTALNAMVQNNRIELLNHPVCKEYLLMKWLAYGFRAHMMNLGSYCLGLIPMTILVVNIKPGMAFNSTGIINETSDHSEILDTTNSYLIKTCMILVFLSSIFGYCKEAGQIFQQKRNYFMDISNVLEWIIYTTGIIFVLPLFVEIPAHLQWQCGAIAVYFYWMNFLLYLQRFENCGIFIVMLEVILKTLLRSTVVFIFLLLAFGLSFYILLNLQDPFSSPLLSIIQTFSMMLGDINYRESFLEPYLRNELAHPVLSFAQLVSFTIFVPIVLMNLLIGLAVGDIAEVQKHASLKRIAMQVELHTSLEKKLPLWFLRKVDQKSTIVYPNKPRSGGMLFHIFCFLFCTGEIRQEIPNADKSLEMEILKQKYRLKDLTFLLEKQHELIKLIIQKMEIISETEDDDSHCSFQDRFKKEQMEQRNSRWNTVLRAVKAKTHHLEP

## Oc1cc2c(cc1O)CN(C(=S)NCCc1ccc(Cl)cc1)CCC2 [CPZ, capsazepine]
[1]; CPZ 1 µM preincubation 20 seconds, capsaicin 100 nM
  block of capsaicin-induced current: blocked
[1]; [6]
  normalized current density of NGCC-induced current after wash out of CPZ: 0.61±0.12
  normalized current density of NGCC-induced current under CPZ: 0.12±0.05
[2]
  block of capsaicin- and NGCC-induced hTRPV1 activation (dose-response): blocked the effects of capsaicin and NGCC
[3]
  block of NGCC-induced Ca2+ influx in hTRPV1-expressing cells: blocked NGCC activity to baseline levels

## C=CCN=C=S [AITC, Allylisothiocyanate]
[4]
  inward current in hTRPA1-expressing cells: evoked an inward current

## NC(=NCc1ccccc1)NC(=O)c1nc(Cl)c(N)nc1N [Bz, benzamil]
[5]
  inhibition of S3969 activity on αβγ hENaC-expressing cells: No effect of S3969 was observed
